Experiments:
Type in all cases: cell-based
E-cadherin = assay: Western blot of E-cadherin in ovarian carcinoma cell lines; conditions: panel of ovarian carcinoma cell lines, 2 μM for 48 hours vs 0.02% DMSO
Experimental: (§1) FIG. 11 is a western blot image showing the increase in epithelial marker E-cadherin expression and the decrease of mesenchymal marker MMP-13 expression in panel of ovarian carcinoma cell lines treated with AZD0530. Cell lines were treated with 2 μM AZD0530 or 0.02% DMSO control for 48 hours. Thus, FIG. 11 provides an example of possible downstream analysis that may be conducted subsequent to the detection of possible inhibitor by the method as described herein. In this figure, western blot analysis was used to validate the possible inhibitor detected by the method as described herein.
(§2) For western blot experiments with other cell lines, cells are treated either with AZD0530, such as 2 μM AZD0530 or DMSO, such as 0.02% DMSO control for 48 h. The samples are then processed using the same procedure as described above. The samples were probed with MMP-13, E-cadherin, plakoglobin (Cell Signaling), α-tubulin, and β-actin (Cell Signaling) antibodies.

[1] = system: IGF-1-induced EMT in NBT-II cells; assay: EMT spot migration assay, IGF-1-induced; conditions: IGF-1-induced EMT (150 ng/ml IGF-1), CDR dose response from 6.67 μM, read-out: Cell Dispersion IC 50, IGF-1
Experimental: (§3) NBT-II cells were stably transfected with mcherry-fluorescent H2B and maintained in DMEM supplemented with 10% fetal bovine serum (FBS, Thermo Scientific), 1 μg/ml puromycin (Sigma) and 100 units/ml penicillin-streptomycin (1× pen-strep, Invitrogen). Cells were grown to 80% confluency in tissue culture flasks prior to plating. Cells were trypsinized and concentrated to a density of 5×10^6 cell/ml in CO2-independent medium (Invitrogen) supplemented with 10% FBS. The cell suspension was then evenly dispersed into the wells of two columns of a 96-well V-bottom plate. Using a robotic liquid-handling station (Bravo, Agilent Technologies), 0.5 μl of cell suspension was transferred from the two columns of the cell suspension-loaded plate and deposited into the center of the wells of two columns of a 96-well clear bottom, black assay plate (Corning). This process was repeated six times so that all 96 wells of the assay plate were deposited with a cell suspension spot. The plate was then sealed to minimize evaporation of the cell suspension spots and transferred to a 37° C., 5% CO2 incubator to allow for cells to attach to the culture surface. After 1 hour, the plate was gently washed with medium once to remove unattached cells, refreshed with 100 μl of assay medium (DMEM supplemented with 10% FBS and 1× pen-strep), and then further incubated to allow for cell-cell contacts to establish in the cell colonies.
(§4) Four tiled, non-overlapping images were acquired around the center of each well, and were then stitched together during image analysis to generate a montage covering an area of 3.2 mm×3.2 mm. These images (T1) represent the initial state of the cell colonies before EMT induction.
(§5) After the T1 images were acquired, 1 μl of test compounds were transferred from compound stock plates and added to the assay plates. Appropriate negative controls (1 μl DMSO) and positive controls (1 μl 1.0 mM compound in DMSO) were also added into columns 1 and 12 of each assay plate, respectively. […] The cultures were then further incubated overnight.
(§6) The next day, 50 μl of growth factor-containing medium was added to each well of the assay-plates. For each of the growth factor-induced EMT spot migration assays, the final growth factor concentrations in each well is optimized to be 20 ng/ml EGF (Sigma), 4 ng/ml HGF (Calbiochem) or 150 ng/ml IGF-1 (R&D Systems), respectively. The cultures were then incubated for another 24 hours, to allow for EMT and sufficient cell motility/dispersion to occur in the cell colonies.
(§7) Finally, the cell colonies were imaged again using the microplate imager, as described above. These images (T2) represent the final state of the cell colonies after compound treatment and EMT induction. The acquired T1 and T2 image sets for each assay plate were then sent for image analysis.
(§8) The acquisition of each well was obtained by four adjacent field images with no interstice in between. Each field image was loaded and nuclei were initially segmented independently of other fields to prevent artifact at the field border. Nuclei segmentation was achieved by combining a wavelet transform which is robust to noise and unhomogeneous background, and a watershed algorithm based on intensities to split nuclei clusters. Mask of nuclei segmentation of the different fields were then stitched together in order to obtain a large segmentation of the whole well. Cell bodies were estimated by applying a morphological dilation on the nucleus segmentation using a disk of 30 pixels (48 μm) in diameter. In cells that are contiguous, such as in a cell colony, nuclei segmentation dilation will result in the formation of continuous region areas with surrounding cells which can then be identified as colonies.
(§9) Total cell number and spreading coefficient values for each well were then exported into an Excel sheet.

MMP-13 = assay: Western blot of MMP-13 in ovarian carcinoma cell lines; conditions: panel of ovarian carcinoma cell lines, 2 μM for 48 hours vs 0.02% DMSO
Experimental: as §1, §2

plakoglobin = assay: Western blot of plakoglobin in cell lines; conditions: 2 μM for 48 hours vs 0.02% DMSO
Experimental: as §1, with “10” for “11”, “plakoglobin” for “E-cadherin”, “induced by AZD0530” for “and the decrease of mesenchymal marker MMP-13 expression”, “in” for “in panel of ovarian carcinoma”, “lines.” for “lines treated with AZD0530.”
as §2

[2] = system: HGF-induced EMT in NBT-II cells; assay: EMT spot migration assay, HGF-induced; conditions: HGF-induced EMT (4 ng/ml HGF), CDR dose response from 6.67 μM, read-out: Cell Dispersion IC 50, HGF
Experimental: as §3, §4, §5, §6, §7, §8, §9

CN1CCN(CCOc2cc(OC3CCOCC3)c3c(Nc4c(Cl)ccc5c4OCO5)ncnc3c2)CC1 [AZD0530]
Epithelial marker E-cadherin expression (E-cadherin): increase
IC50 [1]: 0.24 µM
Mesenchymal marker MMP-13 expression (MMP-13): decrease
Epithelial marker plakoglobin expression (plakoglobin): increase
IC50 [2]: 0.51 µM

Source: patent US20150004620A1, “METHOD OR DEVICE FOR IDENTIFYING INHIBITOR OF EPITHELIAL MESENCHYMAL TRANSITION” (Agency for Science, Technology and Research, priority 2011, published 2015)
